Reference: patent US20050129782A1, “Use of inorganic nanoparticles to stabilize hydrogen peroxide solutions” (Alcon, Inc., priority 2003, published 2005)

Columns and labels:
[1] = Stability of 3% hydrogen peroxide solutions with stabilizing agents, heated at 100° C. for 24 hours, KMnO4 titration (Example 1); assay type: physicochemical; conditions: 3% H2O2, phosphate buffer pH 6.5, 100° C. 24 hours vs 25° C.
Description: 3% hydrogen peroxide solutions containing three different stabilizing agents were formulated in phosphate buffer at pH 6.5. 10 ml samples were heated in HCl-cleaned test tubes at 100° C. for 24 hours to simulate a two year shelf life. Then a 200 microliter aliquot was added to 40 ml of a 2.75% H2SO4 solution and titrated with 0.01N KMnO4.

[2] = Stability of 100 ppm H2O2 at various pHs, heated at 100° C. for 24 hours, KMnO4 titration (Example 3); assay type: physicochemical; conditions: 60 ppm Dequest 2060 (control); 100 ppm H2O2, pH 6.5; 100° C. 24 hours vs RT
Description: The effectiveness of 50 ppm Laponite® XLG to stabilize 100 ppm H2O2 at various pH levels was evaluated.
50 ppm Laponite® XLG was formulated in a phosphate buffer (0.8655% NaCl, 0.0622% sodium phosphate dibasic, 0.0072% sodium phosphate monobasic monohydrate), along with 100 ppm hydrogen peroxide (from a 30% unstabilized solution). 100 mL samples were then adjusted to pH levels of 6.5, 7.0 and 7.5, respectively. 10 mL of each sample was then placed in a test tube, sealed with a screw cap, and heated to 100° C. for 24 hours. After heating, 5 mL of each sample was titrated with 0.002% KMnO4 and compared to the unheated sample to obtain % stability. 60 ppm of Dequest® 2060 at pH 6.5 was used as a control.

| Structure (SMILES) | % Stability of H2O2 ([1]; stabilizer 180 ppm) [%] | % stability [2] [%] | % Stability of H2O2 ([1]; stabilizer 500 ppm) [%] |
| --- | --- | --- | --- |
| O=P(O)(O)CN(CCN(CP(=O)(O)O)CP(=O)(O)O)CCN(CP(=O)(O)O)CP(=O)(O)O [Dequest ® 2060] | 98.2 | 92.9 |  |
| O=C(O)CN(CCN(CC(=O)O)CC(=O)O)CC(=O)O [EDTA] |  |  | 24.8 |
